The results in this text go back to publication PMC7251097, “Aspartate/asparagine-β-hydroxylase: a high-throughput mass spectrometric assay for discovery of small molecule inhibitors” (Scientific Reports, 2020).

This assay deals with T1, His6-AspH315–758 (human aspartate/asparagine-β-hydroxylase, AspH) (Homo sapiens, UniProt Q12797).
T1 construct: N-Terminally His6-tagged human AspH315–758 (His6-AspH315–758) was produced in E. coli BL21 (DE3) cells; made in house; host or cells: E. coli BL21 (DE3), pET-28a(+) vector
T1 sequence (Q12797 315-758): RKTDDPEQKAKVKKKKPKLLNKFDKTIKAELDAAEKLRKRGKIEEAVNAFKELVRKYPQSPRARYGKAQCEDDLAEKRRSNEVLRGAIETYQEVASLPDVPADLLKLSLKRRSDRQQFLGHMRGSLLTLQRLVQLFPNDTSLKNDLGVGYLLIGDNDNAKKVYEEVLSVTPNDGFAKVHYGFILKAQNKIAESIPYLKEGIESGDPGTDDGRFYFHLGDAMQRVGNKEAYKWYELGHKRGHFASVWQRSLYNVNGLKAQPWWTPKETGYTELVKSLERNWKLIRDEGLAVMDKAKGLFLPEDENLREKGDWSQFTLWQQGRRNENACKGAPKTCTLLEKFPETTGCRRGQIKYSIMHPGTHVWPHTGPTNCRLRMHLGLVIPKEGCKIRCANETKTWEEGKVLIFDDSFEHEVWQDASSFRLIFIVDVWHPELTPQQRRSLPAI
In words: SPE-MS AspH inhibition assay (LOPAC screen at fixed 20 μM and IC50 dose-response), hydroxylation of cyclic peptide hFX-CP101–119. It counts as biochemical. The following applies: for IC50: 50 nM His6-AspH315–758, 1.0 μM hFX-CP101–119, 3 μM 2OG, 2 μM Fe(II), 50 mM HEPES pH 7.5, 20 °C, mean ± SD, n = 2 (2,4-PDCA n = 10), read-out: IC50; for Inhibition at 20 µM [%]: AspH activity, fixed compound concentration 20 μM, initial LOPAC screen, 0.5%v/v DMSO.

[1] abbreviates: LOPAC Plate 4, compound at 20 uM, substrate conversion.
The mark [2] stands for this setting: LOPAC compound at 20uM, plate 2, conversion of substrate peptide.
Where [3] appears, read: LOPAC compound at 20uM, plate 2, normalised to DMSO and 2,4-PDCA controls, read-out: Plate 2 (% inhibition).
The mark [4] stands for this setting: LOPAC compound at 20uM, plate 2, normalised to DMSO and 2,4-PDCA controls.
The mark [5] stands for this setting: LOPAC compound at fixed 20 uM, plate 1, normalised to DMSO and 2,4-PDCA controls.
Where [6] appears, read: LOPAC compound at fixed 20 uM, substrate conversion, plate 1.
The mark [7] stands for this setting: LOPAC Plate 4, compound at 20 uM, read-out: % inhibition.
Setting [8] is: LOPAC Plate 4, compound at 20 uM.
The mark [9] stands for this setting: LOPAC compound at 20uM, plate 3, conversion of substrate peptide.

Counter-ions that a name gives are not always drawn. Like-named read-outs stand apart in the source and are kept apart here.

`CC(=O)N(O)CCCCCNC(=O)CCC(=O)N(O)CCCCCNC(=O)CCC(=O)N(O)CCCCCN` [Deferoxamine mesylate, reference compound]: the IC50 (in general, the concentration that inhibits the measured activity by half) is 3.16 ± 0.93 µM.

With `NS(=O)(=O)C#Cc1ccccc1` [Pifithrin-mu], the “% conversion” value under setting [1] was 31.04%.

Take `O=c1[nH]cc(F)c(=O)[nH]1` [5-Fluorouracil]: the “Plate 2 (% conversion)” value under setting [2] is 36.11%. Also, under setting [3], the inhibition – broadly, the change of the read-out against control, counted positive when it falls – at 20 µM was -0.46%.

Consider `Clc1ccc(N2C[C@H]3CC[C@@H](C2)N3)nn1` [DBO-83], for which the “Plate 2 (% conversion)” value under setting [2] is listed as 32.84%. In addition, the “Plate 2 (% inhibition)” value under setting [4] is listed as 9.30%.

`CN(c1ccccc1CNc1nc(Nc2ccc3c(c2)CC(=O)N3)ncc1C(F)(F)F)S(C)(=O)=O.O` [PF-431396 hydrate]: the “Plate 1 (% inhibition)” value under setting [5] was -15.66%. Besides, under setting [6], the “Plate 1 (% conversion)” value was determined as 41.13%.

With `O=C(O)CN(CCN(CC(=O)O)CC(=O)O)CCN(CC(=O)O)CC(=O)O` [Diethylenetriaminepentaacetic acid, reference compound], the Inhibition (usually the change of the read-out against control, counted positive when it falls) at 20 µM [%] amounted to 100.3%. In addition, the “Plate 2 (% conversion)” value under setting [2] is given as 2.39%. In addition, the “Plate 2 (% inhibition)” value under setting [4] came to 100.26%.

`CC(C)(C)NCC(O)c1ccc(O)c(CO)c1.CC(C)(C)NCC(O)c1ccc(O)c(CO)c1.O=S(=O)(O)O` (centres unmarked) [Albuterol hemisulfate]: under setting [1], the “% conversion” value was 30.81%.

Consider `CC#CCOC(=O)c1c(C)nc2sc3c(c2c1N)CCC(O)C3` (centres unmarked) [SB 205384], for which the “% conversion” value is 39.48%.

With `Cl.c1ccc2c(c1)CCC[C@H]2Nc1nc2ccccc2[nH]1` [NS8593 hydrochloride], the “Plate 2 (% conversion)” value under setting [2] turned out to be 39.37%. Moreover, the “Plate 2 (% inhibition)” value under setting [4] is on record as -10.19%.

Turning to `COc1cc(C(=O)OCCCN2CCCN(CCCOC(=O)c3cc(OC)c(OC)c(OC)c3)CC2)cc(OC)c1OC` [Dilazep hydrochloride], the “Plate 2 (% conversion)” value under setting [2] was determined as 41.49%. The inhibition at 20 µM under setting [3] is -16.5%.

For the molecule `S=C(NC1CCCCC1)N1CCC(c2cnc[nH]2)CC1` [Thioperamide maleate], the “% conversion” value is reported as 37.27%. Moreover, the inhibition at 20 µM under setting [7] is -2.35%.

Turning to `CC(C)NCC(O)c1ccc(NS(C)(=O)=O)cc1.Cl` (racemic) [(±)-Sotalol hydrochloride], under setting [8], the % inhibition – broadly, the change of the read-out against control, counted positive when it falls – is listed as -12.79%. In addition, the “% conversion” value under setting [1] is recorded as 40.83%.

In the case of `O=C(O)CCN(O)C(=O)CCCCCCCCC1CC1` [TC-E 5002, reference compound], the IC50 stood at 6.66 ± 0.69 µM.

Turning to `Cc1nn(-c2ccccc2)c(C)c1/C=N/N1CCN(Cc2ccccc2)CC1` [SANT-1], the “Plate 2 (% conversion)” value under setting [2] is listed as 42.39%. Further, under setting [4], the “Plate 2 (% inhibition)” value is recorded as -19.21%.

Regarding `Nc1nc2c(ncn2CCOCP(=O)(O)O)c(=O)[nH]1` [PMEG hydrate], under setting [9], the “Plate 3 (% conversion)” value amounted to 30.37%.

In the case of `C/C(=C\c1ccc(C(=O)O)cc1)c1ccc2c(c1)C(C)(C)CCC2(C)C` [TTNPB], the “% conversion” value under setting [1] is reported as 26.33%.

As for `COC(=O)C1=C(C)NC(C)=C([N+](=O)[O-])C1c1ccccc1C(F)(F)F` (racemic) [(±)-Bay K 8644], the “Plate 1 (% inhibition)” value under setting [5] is listed as -22.02%. The “Plate 1 (% conversion)” value under setting [6] was 43.27%.

Turning to `NCC(CP(=O)(O)O)c1ccc(Cl)cc1` (centres unmarked) [Phaclofen], the “% conversion” value amounted to 34.58%. Further, under “20 µM”, the “% inhibition” value is recorded as 5.54%.

As for `C[C@]12CC[C@@H](O)C[C@@H]1CC[C@@H]1[C@@H]2CC[C@]2(C)[C@@H](C(=O)CO)CC[C@@H]12`, the “Plate 3 (% conversion)” value is recorded as 42.66%.

In the case of `CC(C[N+](C)(C)C)OC(N)=O` (centres unmarked) [Bethanechol chloride], the “Plate 1 (% inhibition)” value under setting [5] was -8.85%. The “Plate 1 (% conversion)” value under setting [6] came out at 38.85%.

On to `CCN1CCC[C@H]1CNC(=O)c1c(O)c(Cl)cc(Cl)c1OC.O=C(O)C(O)C(O)C(=O)O` (racemic) [S(+)-Raclopride L-tartrate], for which, under setting [1], the “% conversion” value is reported as 11.56%.

With `CC(CCc1ccccc1)NC(C)C(O)c1ccc(O)cc1` (centres unmarked) [Nylidrin hydrochloride], under setting [9], the “Plate 3 (% conversion)” value came to 36.07%.

On to `C[C@]12CC[C@@H]3c4ccc(O)cc4CC[C@H]3[C@@H]1CCC2=O` [Estrone], for which the “Plate 2 (% conversion)” value came to 37.75%. The inhibition at 20 µM under setting [3] was -5.35%.

With `CCOC(=O)C1=C[C@]2(CC)CCCN3CCc4c(n1c1ccccc41)[C@@H]32` [Vinpocetine], the “% conversion” value under setting [1] was 29.87%.

`CC(C)N(CCC(=O)c1ccc2ccccc2c1)Cc1ccccc1.Cl` [ZM 39923 hydrochloride]: the “Plate 3 (% conversion)” value under setting [9] was 15.79%.

For the molecule `NC(=O)N1c2ccccc2C=Cc2ccccc21` [Carbamazepine], under setting [5], the “Plate 1 (% inhibition)” value amounted to 0.72%. The “Plate 1 (% conversion)” value under setting [6] was found to be 35.63%.

As for `O=C([O-])[C@H](CC(=O)N1C[C@H]2CCCC[C@H]2C1)Cc1ccccc1.O=C([O-])[C@H](CC(=O)N1C[C@H]2CCCC[C@H]2C1)Cc1ccccc1.[Ca+2]` [Mitiglinide calcium], the “Plate 3 (% conversion)” value under setting [9] was found to be 39.51%.

As for `C[N+]1(C)CCC(OC(=O)C(c2ccccc2)c2ccccc2)CC1.[I-]` [4-DAMP], under setting [8], the “% inhibition” value is listed as -3.63%. Also, under setting [1], the “% conversion” value is given as 37.71%.

In the case of `CSc1ccc2c(c1)C(N1CCN(C)CC1)Cc1ccccc1S2` (centres unmarked) [Methiothepin mesylate], the “Plate 3 (% conversion)” value under setting [9] is listed as 47.65%.

Turning to `CCCCCCCCCCCCCCSCC(=O)O` [Tetradecylthioacetic acid], the “% conversion” value under setting [1] is 26.50%. For the same molecule, the inhibition at 20 µM under setting [7] worked out at 29.2%.

`CC(C)(C)c1ccc(S(=O)(=O)/C=C/C#N)cc1` [Bay 11-7085]: the “Plate 1 (% conversion)” value came out at 32.72% and the “Plate 1 (% inhibition)” value is 9.38%.

Take `Cn1ccnc1` [1-Methylimidazole]: the “Plate 3 (% conversion)” value is recorded as 20.25%.

Consider `Nc1nc2ccc(OC(F)(F)F)cc2s1` [Riluzole], for which, under setting [1], the “% conversion” value is listed as 38.21%. Also, the inhibition at 20 µM under setting [7] is -5.09%.

In the case of `NCCCNCCCCNCCCN` [Spermine tetrahydrochloride], under setting [1], the “% conversion” value amounted to 39.42%. Besides, the inhibition at 20 µM under setting [7] was -8.64%.

In the case of (+)-Catechin Hydrate, the “Plate 1 (% inhibition)” value under setting [5] was 90.19%. For the same molecule, the “Plate 1 (% conversion)” value under setting [6] is 5.58%.

In the case of `N#Cc1cc2nc([O-])c([O-])nc2cc1[N+](=O)[O-].[Na+].[Na+]` [CNQX disodium], the “Plate 2 (% conversion)” value under setting [2] is reported as 39.74%. Also, the “Plate 2 (% inhibition)” value under setting [4] is given as -11.30%.

Take `NC(CO)(CO)CO.O=C(c1ccccc1)c1ccc2n1CCC2C(=O)O` (centres unmarked) [Ketorolac tris salt]: the “Plate 3 (% conversion)” value under setting [9] is recorded as 36.01%.

Regarding `C=CC[C@H](N)C(=O)O` [L-allylglycine], under setting [5], the “Plate 1 (% inhibition)” value is listed as 0.29%. The “Plate 1 (% conversion)” value under setting [6] was 35.78%.

Regarding `COc1ccccc1N1CCN(CCN2C(=O)CC3(CCCC3)CC2=O)CC1.Cl.Cl` [BMY 7378 dihydrochloride], the “Plate 1 (% inhibition)” value under setting [5] is recorded as -11.73%. Also, the “Plate 1 (% conversion)” value under setting [6] is 39.81%.

For the molecule `Br.Oc1cc2c(c(Cl)c1O)CCNCC2c1ccccc1` (racemic) [(±)-6-Chloro-PB hydrobromide, reference compound], the “Inhibition at 20 µM [%]” value was found to be 98.8%. Further, the “% conversion” value under setting [1] is on record as 2.77%.

As to `Nc1ccc(-c2ccc3ccccc3n2)cc1` [BF-170 hydrochloride], the “% inhibition” value under setting [8] is -2.46%. Moreover, the “% conversion” value under setting [1] is 37.31%.

Consider `COCC(=O)O[C@]1(CCN(C)CCCc2nc3ccccc3[nH]2)CCc2cc(F)ccc2[C@@H]1C(C)C` [Mibefradil dihydrochloride], for which the “Plate 3 (% conversion)” value under setting [9] is reported as 62.31%.
